# “And” between values parts separate entries of the source, which are not always exact repeats. Equal entries are not always repeated. “Also recorded” adds a separate entry of the source.
# How the values were obtained:
# [1] = system: recurrent Glioblastoma Multiforme (GBM); assay: phase 1/2a clinical trial: carboplatin with LIPU/microbubble BBB opening (SonoCloud-9), clinical outcomes; type: in vivo, human
# Experimental: A prospective, open-label, multi-center, single-arm, dose escalation, phase 1/2a clinical trial was conducted enrolling recurrent Glioblastoma Multiforme (“GBM”) patients at four clinical sites in France and two sites in the United States. All patients provided written informed consent in accordance with institutional guidelines. Approval was obtained from the ANSM (French National Health Agency) and from the US FDA (Food and Drug Administration). The study was conducted in accordance with good clinical practices. The study began in February 2019 and follow-up was completed in November 2022.
# The trial was designed to evaluate the safety and efficacy of transient disruption of the blood-brain barrier by low intensity pulsed ultrasound (“LIPU”) with an implantable ultrasound device, i.e., the SonoCloud-9 implantable device (“SC9”; Carthera, Lyon, France). The trial first evaluated the Dose Limiting Toxicity (“DLT”) of escalating numbers of ultrasound beams (3, 6, and 9 beams) at constant acoustic pressure (1.03 MPa) using a 3+3 dose escalation design (cohorts A, B and C) and then confirmed the safety and efficacy of BBB opening in two expansion cohorts (cohorts C & D).
# (§1) The secondary endpoints included the frequency and severity of adverse events (incidence of adverse events summarized by system organ class and/or preferred term and severity) based on the CTCAE, version 5.0, the time to and localization of recurrence(s) on magnetic resonance imaging, feasibility of the procedure considering the time required for the sonication (from beginning of needle connection to the end of ultrasound emission and needle extraction) at the first 3 sonications of each patient, and the total time for SonoCloud 9 positioning using the SonoCloud 9 template. Six-month progression-free survival (6m-PFS), median progression-free survival (mPFS), and 1-year overall survival (1y-OS) and median OS (mOS) were also evaluated. In this trial, time to progression or to death was calculated from time of surgery/device implantation to time of events.
# The SC9 device contains no internal energy source and is activated on demand by connecting the device to an external generator using a transdermal needle, as shown in FIG. 7A. Each sonication step consists of the generation of sequential pulses from each emitter (1 MHz, 25 ms pulse, 0.5 Hz, 270 seconds) in combination with the IV administration of the ultrasound resonator (microbubbles [MB], Definity®/Luminity® 10 μL/kg, Lantheus, N. Billerica, MA). The ultrasound resonator is injected as a 30-second bolus at the start of the ultrasound sonication procedure. Sonication was performed prior (within 60 minutes) to the carboplatin chemotherapy at cycles 1, 2 and 3 and no more than 30 minutes before the start of carboplatin therapy for the following cycles, for cohorts A, B, and C. For cohort D, the sonication was performed immediately after the completion of the carboplatin infusion. After completion of the six sonication cycles specified in the protocol or in the case of progression/premature discontinuation of the trial and prior to the end of study visit, the removal of the device could be performed unless considered as contra-indicated by the investigator or refused by the patient.
# Standard carboplatin chemotherapy using any FDA/ANSM-approved, therapeutically equivalent carboplatin injectable drug product, with a target AUC of 4-6 mg/ml*min (AUC as per local practice and investigators judgement) was given according to the Calvert formula (Calvert et al., 1989, J. Clin. Oncol. 7:1748-1756). Cycles were to be repeated every 4 weeks provided the absolute neutrophil count had recovered to ≥1500 cells/mm^3 and the platelet count was at least 100,000 cells/mm^3. Subsequent dosages were adjusted for toxicity as needed per local practice.
# [2] = system: recurrent Glioblastoma Multiforme (GBM); assay: contrast enhancing tumor progression assessment on MRI in the clinical trial; type: in vivo, human; details: for tumor growth rate (median): hyperintense T1w volume in region targeted by the implant
# Experimental: To evaluate the local effect of the treatment, an analysis was performed using the monthly pre-ultrasound and end-of-study MR images. The T1w contrast-enhancing tumor-related region segmented with a semi-automatic method (ITK Snap) (Yushkevich et al. 2006, Neuroimage 31:1116-1128). The total volume of this hyperintense region was evaluated at each treatment cycle in the whole brain, and in the region targeted by the implant, considering nine […] cylinders in front of the emitters. This region corresponded to 10×75 mm cylinders with an additional diffusion margin of 5 mm (Goldwirt et al., 2016, Cancer Chemother. Pharmacol. 77:211-216).
# To further evaluate tumor progression likelihood as a function of distance to the region targeted by the emitters, the difference of this hyperintense volume between the last MRI and the first cycle was used as a progression mask. The distribution of the volume of this progression mask relative to the distance to the axes of the nine emitters was computed.
# [3] = dose-limiting toxicity, tolerability and safety of carboplatin delivered with concomitant LIPU/MB-based BBB opening; type: in vivo, human
# Text: For the Phase 1 (escalation of the number of active emitters/beams), the main objective was to identify the Maximum Tolerated Dose (“MTD”) defined as the highest active-beams level at which ≤1 DLT occurred in a maximum of 6 patients by cohort. […]
# as §1
# All patients were clinically assessed at least once a month (prior to the next cycle) and included standard laboratory blood analyses (complete blood counts, chemistry with liver and kidney function tests), and also a contrast-enhanced MRI within 2 days prior to sonication. Patients discontinued the study if tumor progression was identified according to the Response Assessment in Neuro-Oncology criteria (Wen et al., 2010, J. Clin. Oncol. 28:1963-1972). For patients continuing the study, subsequent MRI exam was to be performed immediately after LIPU/MB treatment.
# [4] = plasma kinetics used for the model; cited from earlier work
# [5] = cohort C, carboplatin after US (N = 15)
# [6] = cohort D, carboplatin before US (N = 12)
# [7] = cohorts C + D (N = 27), 9 emitters activated
# [8] = CTCAE Grade 3, N = 34, related to the investigational procedure
# [9] = CTCAE all grade, N = 34, related to the investigational procedure
smiles,measurement,setting,value
N.N.O=C([O-])C1(C(=O)[O-])CCC1.[Pt+2] [carboplatin],1-yr OS,[1]; [5],46.7% and 47%
same,9-month OS,[1]; [5],67%
same,mOS,[1]; [5],11.8 months
same,mPFS,[1]; [5],2.5 months
same,1-yr OS,[1]; [6],58.3% and 58%
same,9-month OS,[1]; [6],75%
same,mOS,[1]; [6],14.0 months
same,mPFS,[1]; [6],3.1 months
same,1-yr OS,[1]; [7],52%
same,9-month OS,[1]; [7],70%
same,mOS,[1]; [7],12.4 months
same,mPFS,[1]; [7],2.7 months
same,tumor growth rate (median),[2]; cohort C (carboplatin after sonication),2.31 mL/month
same,evolution of the T1w enhancement outside the sonication field,"[2]; cohort C vs cohort D, region targeted by the implant excluded (p=0.55)",no significant difference
same,tumor growth rate (median),[2]; cohort D (carboplatin before sonication),0.54 mL/month
same,in-field tumor control,[2]; cohort D compared to cohort C,Better in-field tumor control
same,local tumor progression probability (% ROI volume covered with hyperintense tumor at end of study vs distance to emitter axis),"[2]; cohort D vs cohort C, up to 10 mm radius from emitter axes (significant up to 7.5 mm)",less likelihood; also recorded: lower
same,General disorders and administration site conditions,[3]; [8],1 (3%)
same,Infections and infestations,[3]; [8],2 (6%)
same,Nervous system disorders,[3]; [8],3 (9%)
same,Patients with Any Related TEAEs (Overall),[3]; [8],12 (35%)
same,Skin and subcutaneous tissue disorders,[3]; [8],6 (18%)
same,Anxiety,[3]; [9],1 (3%)
same,Aphasia,[3]; [9],4 (12%)
same,Balance disorder,[3]; [9],1 (3%)
same,Cerebrospinal fluid leakage,[3]; [9],2 (6%)
same,Confusional state,[3]; [9],1 (3%)
same,Depression,[3]; [9],1 (3%)
same,Diplopia/Vision blurred,[3]; [9],6 (17%)
same,Dizziness,[3]; [9],8 (24%)
same,Dysarthria,[3]; [9],2 (6%)
same,Ear and labyrinth disorders,[3]; [9],2 (6%)
same,Fatigue/Asthenia,[3]; [9],6 (18%)
same,General disorders and administration site conditions,[3]; [9],8 (24%)
same,Headache,[3]; [9],7 (21%)
same,Hypoaesthesia,[3]; [9],1 (3%)
same,Implant site pain,[3]; [9],1 (3%)
same,Infections and infestations,[3]; [9],2 (6%)
same,"Injury, poisoning and procedural complications",[3]; [9],3 (9%)
same,Lacunar stroke,[3]; [9],1 (3%)
same,Language disorder,[3]; [9],1 (3%)
same,Meningocele acquired,[3]; [9],3 (9%)
same,Monoparesis,[3]; [9],1 (3%)
same,Nervous system disorders,[3]; [9],25 (74%)
same,Pain of skin,[3]; [9],19 (56%)
same,Paraesthesia,[3]; [9],3 (9%)
same,Patients with Any Related TEAEs (Overall),[3]; [9],33 (97%)
same,Post procedural oedema,[3]; [9],1 (3%)
same,Presyncope,[3]; [9],2 (6%)
same,Psychiatric disorders,[3]; [9],2 (6%)
same,Scar,[3]; [9],1 (3%)
same,Seizure,[3]; [9],2 (6%)
same,Skin and subcutaneous tissue disorders,[3]; [9],19 (56%)
same,Subarachnoid haemorrhage,[3]; [9],1 (3%)
same,Vertigo,[3]; [9],2 (6%)
same,Wound infection/Postoperative wound infection,[3]; [9],2 (6%)
same,grade 4 events,"[3]; CTCAE, all implanted patients",No grade 4 events
same,tolerability of device implantation and repeated BBB opening procedure,[3]; all patients,well-tolerated
same,pattern of hematological and non-hematological toxicities secondary to carboplatin,"[3]; e.g. bone marrow suppression, anemia, vomiting",as expected
same,Dose Limiting Toxicity (DLT),"[3]; sonication plus carboplatin, 3, 6 and 9 beams",No DLTs
same,alpha half-life,[4],~1 h
same,beta half-life,[4],~6 h
CC(=O)O[C@H]1C(=O)[C@@]2(C)[C@H]([C@H](OC(=O)c3ccccc3)[C@]3(O)C[C@H](OC(=O)[C@H](O)[C@@H](NC(=O)c4ccccc4)c4ccccc4)C(C)=C1C3(C)C)[C@]1(OC(C)=O)CO[C@@H]1C[C@@H]2O [paclitaxel],alpha half-life,[4],~0.5 h
same,beta half-life,[4],several hours

# Reference: patent US20250114582A1, “METHOD FOR EFFICIENT DRUG ADMINISTRATION ACROSS THE BLOOD-BRAIN BARRIER AND USES THEREOF” (Carthera, priority 2023, published 2025)
